US11247998B2, “Piperazine heteroaryl derivative, preparation method therefor and use of same in medicine” (priority 2017, dated 2022)
Like-named read-outs stand apart in the source and are kept apart here.

Experiments:
[1] = tested on: HBV DNA replication in HepG2.2.15 cells; assay: In vitro anti-HBV activity test (quantitative assay of intracellular HBV DNA), HepG2.2.15 cells, quantitative PCR; type: cell-based, hepatitis B virus (HBV); conditions: HBV DNA by quantitative PCR; for EC50: compound treatment Day 2 to Day 8; for Emax: read-out: Emax (effect value of the compound to maximally inhibit HBV DNA replication)
Description: In vitro anti-HBV activity test of the compound of the present invention (quantitative assay of intracellular HBV DNA)
HepG2.2.15 cell is a stable expression cell line that has integrated HBV genome.
Virus particles containing HBV DNA can be synthesized by replication, transcription and encapsidation in the cells, and then secreted. In this study, the quantitative analysis of HBV DNA produced by HepG2.2.15 in vitro proliferation was carried out by quantitative PCR method, thereby determining the activity of the compound of the present invention on inhibiting the HBV DNA replication by inhibiting the assembly of HBV capsid protein.
HepG2.2.15 cells were cultured in DMEM/high glucose medium (10% FBS, […] G418) and passaged every three days. On the day of the experiment, a cell suspension was prepared with fresh cell culture medium, and incubated in a 96-well plate (Corning, #3599) at 40,000 cells/well, at 5% carbon dioxide, 37° C. On Day 2, the compound was dissolved in pure DMSO at a concentration of 20 mM, and then the first concentration of 2 mM was formulated with DMSO, and diluted in 4-fold concentration gradient to 8 concentrations. A control well was added with 90 μl of DMSO. The compound solution was diluted 200-fold with DMEM/high glucose medium. The cell culture plate inoculated on Day 1 was taken out. The medium in the wells was removed by a negative pressure suction device, and the formulated medium containing the compound at each concentration was added respectively to each well at 200 μl/well. The plate was incubated at 37° C. for 72 hours. On Day 5, the medium of the cultured cells was replaced with fresh medium containing the same compound in the same way as Day 2, and then the plate was incubated at 37° C. for 72 hours. On Day 8, the cell culture plate was taken out, centrifuged at 300 g for 3 minutes, and the culture supernatant was collected at 200 μl/well. HBV DNA was extracted from the cell culture supernatant with Qiagen automatic DNA extraction device, and the specific method referred to the instructions of the reagents and instruments. Finally, the extracted DNA was eluted with DNA elution buffer at 100 μl/well. The extracted DNA was subjected to quantitative PCR analysis of HBV DNA using Hepatitis B virus nucleic acid quantitative detection kit (Triplex International Biosciences Co., Ltd.), and the specific method referred to the instruction of the kit. The quantitative standard curve was obtained with the standard sample provided in the kit, and the experiments were performed in parallel. Quantitative conversion of each sample was carried out according to the standard curve. Finally, the EC50 value of the compound was calculated with Graphpad Prism software according to each concentration of the compound and the corresponding DNA value.
The in vitro activity of the compound of the present invention on inhibiting the HBV DNA replication by inhibiting the assembly of HBV capsid protein was determined by the above experiment.

HepG2 cells = assay: Effect on in vitro proliferation of HepG2 cells (CellTiter-Glo); type: cell-based
Description: (§1) Test Example 2. Effect of the Compound of the Present Invention on In Vitro Proliferation of HepG2 Cells
(§2) HepG2 cells in logarithmic growth phase were taken and digested with trypsin to prepare a cell suspension, which was incubated in a 96-well plate (transparent bottom white 96-well plate, PerkinElmer) at 6,000 cells/well, at 5% carbon dioxide, 37° C. for 16-20 hours. On Day 2, the compound was dissolved in pure DMSO at a concentration of 20 mM. The compound was diluted in 3-fold concentration gradient using an automatic pipetting station (Bravo), 8 concentration points for each compound, and the control well was DMSO. The compound formulated in DMSO at each concentration point was diluted 200-fold with EMEM (containing 10% FBS) medium. The cell culture plate inoculated on Day 1 was taken out. The medium in the wells was removed by a negative pressure suction device, and the formulated medium containing the compound at each concentration was added respectively to each well at 100 μl/well. The plate was incubated at 37° C. for 72 hours. On Day 5, the 96-well cell culture plate was taken out, and freshly formulated CellTiter Glo was added to each well at 100 μl/well. The 96-well plate was left to stand for 5-10 minutes, the bottom was then sealed with a white bottom sealing film (PerkinElmer). The plate was placed in the microplate reader to measure the luminescence signal. The CC50 value of the compound was calculated with Graphpad Prism software according to each concentration of the compound and the corresponding proliferation inhibition signal value.
(§3) The inhibition effect of the compound of the present invention on in vitro proliferation of HepG2 cells was determined by the above experiment.

[2] = Pharmacokinetics assay in rats after intragastrical administration (LC/MS/MS of plasma); type: in vivo; conditions: SD rats, 2 mg/kg; for Vd/F / AUC / bioavailability / CL/F / half-life / Cmax / MRT: both sexes, rat, plasma, po; for Vd/F: read-out: Apparent distribution volume Vz/F; for AUC: read-out: Area under curve AUC; for bioavailability: read-out: Bioavailability (%) F %; for CL/F: read-out: Clearance CLz/F; for half-life: read-out: Half-life T1/2 (converted); for Cmax: read-out: Plasma concentration Cmax; for MRT: read-out: Residence time MRT
Description: Pharmacokinetics assay of the compound of the present invention
Rats were used as test animals. The drug concentration in plasma at different time points was determined by LC/MS/MS method after intragastrical administration of the compound of Example 1, the compound of Example 2, the compound of Example 4, the compound of Example 6, the compound of Example 7, the compound of Example 11, the compound of Example 39, the compound of Example 42, the compound of Example 44, the compound of Example 45 and the compound of Example 47 to rats. The pharmacokinetic behavior and property of the compound of the present invention were studied and evaluated in rats.
44 Healthy adult SD rats (half male and half female, 4 rats/group) were purchased from Shanghai Jiesijie Laboratory Animal Co., LTD, with Certificate No.: SCXK (Shanghai) 2013-0006.
A certain amount of the test compound was weighed, and added with 5% by volume of DMSO, 5% by volume of tween 80 and 90% by volume of normal saline to prepare a 0.2 mg/mL colorless, clear and transparent solution.
After an overnight fast, SD rats were administrated intragastrically with the test compound at an administration dose of 2.0 mg/kg and an administration volume of 10.0 mL/kg.
The rats were intragastrically administrated the compound of Example 1, the compound of Example 2, the compound of Example 4, the compound of Example 6, the compound of Example 7, the compound of Example 11, the compound of Example 39, the compound of Example 42, the compound of Example 44, the compound of Example 45 and the compound of Example 47. 0.1 ml of blood was taken from the orbit before administration and at 0.5, 1.0, 2.0, 4.0, 6.0, 8.0, 11.0 and 24.0 hours after administration. The samples were stored in heparinized tubes, and centrifuged for 10 minutes at 3500 rpm to separate the blood plasma. The plasma samples were stored at −20° C. The rats were fed two hours after administration.
The content of the test compound in the plasma of rats after intragastrical administration of the test compound at different concentrations was determined: 25 μL of rat plasma at each time after administration was taken, added with 40 μL of the internal standard solution of camptothecin (100 ng/mL) and 200 μL of acetonitrile, vortex-mixed for 5 minutes, and centrifuged for 10 minutes (4000 rpm). 0.2 μL of the supernatant was taken from the plasma samples for LC/MS/MS analysis.

[3] = Effect on in vitro proliferation of HepG2 cells (CellTiter-Glo); type: cell-based; conditions: human; HepG2 cells, 72 hours, CellTiter-Glo
Description: as §1, §2, §3

[4] = HepG2 cells, 72 hours, CellTiter-Glo, read-out: CC50

Structure (SMILES) | Emax (effect value of the compound to maximally inhibit HBV DNA replication) [1] [%] | EC50 [1] [nM] | CC50 (HepG2 cells; [4]) [nM] | Area under curve AUC [2] [ng·h/mL] | Bioavailability (%) F % [2] [%] | Clearance CLz/F [2] [mL/min/kg] | Half-life T1/2 [2] [h] | Plasma concentration Cmax [2] [ng/mL] | Residence time MRT [2] [h] | CC50 (HepG2 cells) [nM] | EC50 ([1]; Hepatitis B virus) [nM] | Emax ([1]; Hepatitis B virus) [%] | CC50 at 72 h [3] [nM] | Vd/F [2] [L/kg] | AUC [2] [ng·h/mL] | bioavailability [2] [%] | CL/F [2] [mL/min/kg] | half-life [2] [h] | Cmax [2] [ng/mL] | MRT [2] [h]
C[C@H]1Cn2nnc(C(=O)N[C@H](C)C(F)(F)F)c2CN1C(=O)Nc1ccc(F)c(F)c1 [Example 39, (S)—N^5-(3,4-Difluorophenyl)-6-methyl-N^3-((R)-1,1,1-trifluoropropan-2-yl)-6,7-dihydro-[1,2,3]triazolo[1,5-α]pyrazine-3,5(4H)-dicarboxamide] | 100 | 19 | > 100000 | 8105 ± 1585 | 114 | 4.21 ± 0.69 | 6.49 ± 1.71 | 682 ± 168 | 9.82 ± 1.75 |  |  |  |  |  |  |  |  |  |  | 
C[C@H](NC(=O)c1nnn2c1CN(C(=O)Nc1ccc(F)c(F)c1)[C@@H](C)C2)C(F)(F)F [Example 43, (S)—N^5-(3,4-Difluorophenyl)-6-methyl-N^3—((S)-1,1,1-trifluoropropan-2-yl)-6,7-dihydro-[1,2,3]triazolo[1,5-α]pyrazine-3,5(4-)-dicarboxamide] | 99 | 39 |  |  |  |  |  |  |  | > 100000 |  |  |  |  |  |  |  |  |  | 
C[C@@H]1CN(C(=O)Nc2ccc(F)c(C#N)c2)Cc2c(C(=O)N[C@H](C)C(F)(F)F)nnn21 [Example 44, (R)—N^5-(3-Cyano-4-fluorophenyl)-7-methyl-N^3-((R)-1,1,1-trifluoropropan-2-yl)-6,7-dihydro-[1,2,3]triazolo[1,5-α]pyrazine-3,5(4H)-dicarboxamide] |  |  |  |  |  |  |  |  |  |  | 60 | 99 | > 100000 | 4.13 ± 0.26 | 11800 ± 3100 | 94 | 2.99 ± 0.78 | 17 ± 5.05 | 509 ± 39.4 | 24.2 ± 7.38
C[C@H]1Cn2nnc(C(=O)N[C@H](C)C(F)(F)F)c2CN1C(=O)Nc1ccc(F)c(C#N)c1 [Example 45, (S)—N^5-(3-Cyano-4-fluorophenyl)-6-methyl-N^3-((R)-1,1,1-trifluoropropan-2-yl)-6,7-dihydro-[1,2,3]triazolo[1,5-α]pyrazine-3,5(4H)-dicarboxamide] | 102 | 38 | > 100000 | 17162 ± 5791 | 110 | 2.13 ± 0.73 | 19.2 ± 7.16 | 715 ± 187 | 27.4 ± 9.5 |  |  |  |  |  |  |  |  |  |  | 
C[C@@H]1CN(C(=O)Nc2ccc(F)c(C#N)c2)Cc2c(C(=O)N[C@H](C)C(F)(F)F)ncn21 [Example 47, (R)—N^7-(3-Cyano-4-fluorophenyl)-5-methyl-N^1-((R)-1,1,1-trifluoropropan-2-yl)-5,6-dihydroimidazo[1,5-α]pyrazine-1,7(8H)-dicarboxamide] |  |  |  |  |  |  |  |  |  |  | 82 | 100 | > 100000 | 5.69 ± 2.24 | 7260 ± 3050 | 125 | 5.4 ± 2.69 | 13.1 ± 4.3 | 462 ± 94 | 17.7 ± 6.3
